# Laboratory results taken from article PMC7209772 (Molecular microbiology, 2019).
# Biological target: T1, GacB (MxGacB, MXAN_2643), Hypr GGDEF enzyme (Myxococcus xanthus, UniProt Q1D911)
# T1 sequence (Q1D911 1-364): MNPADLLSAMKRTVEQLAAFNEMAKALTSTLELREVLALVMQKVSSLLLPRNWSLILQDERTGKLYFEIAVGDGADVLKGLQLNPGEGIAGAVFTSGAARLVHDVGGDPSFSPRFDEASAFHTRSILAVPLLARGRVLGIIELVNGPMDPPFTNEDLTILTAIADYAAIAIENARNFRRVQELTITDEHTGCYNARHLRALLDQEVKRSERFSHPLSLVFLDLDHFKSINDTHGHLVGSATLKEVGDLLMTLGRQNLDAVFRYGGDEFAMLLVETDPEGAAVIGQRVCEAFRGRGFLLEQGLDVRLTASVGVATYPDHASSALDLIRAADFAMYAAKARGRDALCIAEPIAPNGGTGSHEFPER
# Assay: LC-MS inhibition assay
# Type: biochemical
smiles,measurement,value
"Nc1nc2c(ncn2[C@@H]2O[C@@H]3CO[P@](=O)(O)O[C@H]4[C@@H](O)[C@H](n5cnc6c(=O)[nH]c(N)nc65)O[C@@H]4CO[P@](=O)(O)O[C@H]3[C@H]2O)c(=O)[nH]1 [cdiG, cyclic di-GMP]",IC50,17.8 µM
